Data on 10 compounds can be found in patent publication US5089506A, “Ethanobicyclic amine derivatives for CNS disorders” (G. D. Searle & Co., priority 1990, dated 1992).

Experiment [1] deals with T1, sigma receptor (Rattus norvegicus, UniProt Q9R0C9).
T1 construct: crude membrane preparations were prepared as follows; Brains from male Sprague-Dawley rats; from tissue; host or cells: whole brain of male Sprague-Dawley rats, crude membranes
The experiment in a line: Radioreceptor assay: sigma receptor binding (displacement of [3H]-3-(+)-PPP) in crude rat brain membranes. Also noted: species or system male Sprague-Dawley rats. As to the method: To determine the effects of the compounds in a sigma receptor assay, crude membrane preparations were prepared as follows. Brains from male Sprague-Dawley rats were homogenized in 10 volumes (wt/vol) of 0.32M sucrose, using a Polytron grinder. The homogenate was centrifuged at 900×g for 10 minutes at 4° C. The supernatant was collected and centrifuged at 22,000×X g for 20 minutes at 4° C. The pellet was resuspended in 10 volumes of 50 mM Tris/HCl buffer (pH 7.4) and centrifuged at 22,000×g for 20 minutes at 4° C. The pellet was resuspended in 5 mM Tris/HCl buffer (pH 7.4) to give a final concentration of 250 mg/ml of the crude material. Incubation tubes were prepared in triplicate and contained 0.1 ml of tissue suspension, 2 nM of [^3 H]-(+)-1-propyl-3-(3-hydroxyphenyl)piperidine [^3 H]-3-(+)-PPP, and varying concentrations of the displacing ligand (0.1-1000 nM) in a final volume of 0.5 ml. After a 1 hr incubation at room temperature, the contents of the test tubes were filtered through GS filter paper which had been presoaked for at least 2 hours in 0.05% polyethyleneimine. The test tubes were rinsed three times with Tris/HCl buffer. Radioactivity on the filters was determined using liquid scintillation spectrometry and inhibition curves were calculated according to the method of Cheng and Prusoff [Biochem. Pharmacol., 22, 3099-3108 (1973)].
In general terms: In a radioligand displacement assay an active substance lowers the binding of a labelled ligand.

In experiment [2] the test system is N-allylnormetazocine-induced stereotyped behavior. Description: Blockade of agonist (N-allylnormetazocine)-induced stereotyped behavior and ataxia. The settings on record: ip, N-allylnormetazocine 15 mg/kg i.p. In kind it is in vivo. As to the method: Compounds of the invention were evaluated for their ability to block the effects of N-allylnormetazocine on the induction of stereotyped behavior and ataxia. To test for antagonism, drugs are administered at varying times before i.p. administration of 15 mg/kg of N-allylnormetazocine. Behavioral and ataxia ratings are taken at 2.5 minutes, 5 minutes, and every 5 minutes thereafter until the animal returns to control behavior. […] The lowest dose of the test compound which is capable of blocking the stereotyped behavior and ataxia induced by N-allylnormetazocine was determined.

The test system of experiment [3] is NMDA receptor. The note with it: C. Carter et al, J. Pharm Exp. Ther., 247(3), 1222-1232 (1988); cited from earlier work.
Where [4] appears, read: [3H]-3-(+)-PPP 2 nM, rat brain crude membranes, 1 hr, room temperature, ± SEM, Table II, read-out: Ki apparent (units ± SEM).
Where [5] appears, read: test compound i.p. (route given for the 1 mg/kg dose), read-out: dose which fully blocked N-allylnormetazocine-induced stereotyped behavior (lowest dose capable of blocking).

Read-outs that look alike come from different tables or passages of the source.

T1 sequence (Q9R0C9 whole entry): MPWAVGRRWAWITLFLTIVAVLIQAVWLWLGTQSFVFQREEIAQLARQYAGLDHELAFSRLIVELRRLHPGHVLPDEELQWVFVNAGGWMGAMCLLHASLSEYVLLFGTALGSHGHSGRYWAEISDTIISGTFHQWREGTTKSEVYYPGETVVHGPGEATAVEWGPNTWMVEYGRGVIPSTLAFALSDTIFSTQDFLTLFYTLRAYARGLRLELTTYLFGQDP

For `CN1CCN(CC2CC3CCC2c2ccccc23)CC1` (centres unmarked) [Compound No. 3, 1-(2-Benzobicyclo[2.2.2]octenyl)methyl-4-methylpiperazine], the Ki in experiment [1] (setting [4]) was determined as 4 ± 2 nM. Moreover, the minimal effective dose in experiment [2] (setting [5]) amounted to 1 mg/kg. For `c1ccc2c(c1)C1CC2C(N2CCCCC2)C1` (centres unmarked) [Compound No. 6, 1-(2-Benzobicyclo[2.2.1]heptenyl)piperidine], in experiment [1], the Ki turned out to be 0.075 ± 0.06 nM. For the same compound, the minimal effective dose in experiment [2] (read-out: dose which blocked these same responses (N-allylnormetazocine-induced stereotyped behavior; not stated as fully)) turned out to be 10 mg/kg. As for `c1ccc2c(c1)C1CCC2C(N2CCCCC2)C1` (centres unmarked) [Compound No. 1, 1-(2-Benzobicyclo[2.2.2]octenyl)piperidine], the Ki in experiment [1] (setting [4]) came to 137 ± 9 nM. As to `c1ccc2c(c1)C1CCC2C(CN2CCCCC2)C1` (centres unmarked) [Compound No. 2, 1-(2-Benzobicyclo[2.2.2]octenyl)methylpiperidine], in experiment [1] (setting [4]), the Ki stood at 11 ± 6 nM. The minimal effective dose in experiment [2] (setting [5]) stood at 3 mg/kg. For “1-(4-chlorophenyl)-2-[1-(4-fluorophenyl)piperidinyl]ethanol”, the “found to be non-competitive NMDA receptor antagonists” value in experiment [3] was “non-competitive NMDA receptor antagonists”. As for `CN1CCN(C2CC3CCC2c2ccccc23)CC1` (centres unmarked) [Compound No. 4, 1-(2-benzobicyclo[2.2.2]octenyl)-4-methylpiperazine], the Ki in experiment [1] (setting [4]) was 170 ± 40 nM. In turn, `c1ccc2c(c1)C1CC(CN3CCCCC3)C2C1` (centres unmarked) [Compound No. 5, 1-(2-Benzobicyclo[2.2.1]heptenyl)methylpiperidine] had a Ki in experiment [1] of 9 ± 4 nM. In addition, in experiment [2] (setting [5]), the minimal effective dose was found to be 1 mg/kg. For `CN1CCN(C2CC3CC2c2ccccc23)CC1` (centres unmarked) [Compound No. 8, 1-(2-Benzobicyclo[2.2.1]heptenyl)-4-methylpiperazine], in experiment [1], the Ki was found to be 943 ± 3 nM. Take `CC(C(O)c1ccc(O)cc1)N1CCC(Cc2ccccc2)CC1` (centres unmarked) [ifenprodil]: in experiment [3], the “found to be non-competitive NMDA receptor antagonists” value is “non-competitive NMDA receptor antagonists”. As to `CN1CCN(CC2CC3CC2c2ccccc23)CC1` (centres unmarked) [Compound No. 7, 1-(2-benzobicyclo[2.2.1]-heptenyl)methyl-4-methylpiperazine], the Ki in experiment [1] was found to be 22000 ± 2000 nM.
